The assay relates to S. Typhimurium PhoP-regulated promoter GFP reporter, 4 h. Briefly: PhoP-dependent GFP reporter repression – Salmonella Typhimurium, primary screen (AID 1863).

Here are results for 99 compounds from PubChem BioAssay AID1863 (Southern Research Specialized Biocontainment Screening …, 2009).

The structures appear in SMILES notation. pIC50: −log10 of the molar value. Values joined by “and” are separate entries in the source; they are usually repeats but may differ in a detail not shown here. Equal entries are not always repeated.

By pIC50 is commonly meant the IC50 on a negative log10 scale, so that one unit is a factor of ten. As to `Oc1c(Br)cc(Br)cc1C=NCc1ccccc1`, the negative-log IC50 (pIC50) is 3.99.

As for `Cc1cc(C)n(-c2nc(NCCN(C)C)c3c4c(sc3n2)CCCC4)n1`, the pIC50 was 3.99.

With `CCCCCCCCCCCCCCCC[N+](C)(C)C`, the negative logarithm of the IC50 (pIC50) was 4.46.

Turning to `CCOc1cc(/C=N/N=C(N)N)ccc1OCc1ccc(Cl)cc1`, the pIC50 is 4.34.

For `Fc1ccccc1CCNCc1ccccc1`, the negative logarithm of the IC50 (pIC50) was 4.23.

On to `O=C(N/N=C/c1ccc([N+](=O)[O-])s1)C(O)c1ccccc1` (centres undefined), for which the negative-log IC50 (pIC50) is 4.08.

Take `O=C1C=C(N2CCOCC2)c2ccccc2C1=O`: the negative logarithm of the IC50 (pIC50) was 4.29.

As for `Clc1ccc(OCCCNCc2ccccc2)c(Br)c1`, the negative logarithm of the IC50 (pIC50) was 4.16.

For `CCn1cc(C(=O)O)c(=O)c2ccc(C)nc21`, the negative logarithm of the IC50 (pIC50) was 4.07.

For `CCCCCCCCCCCCCCCCn1cc[n+](CC(C)=O)c1`, the negative-log IC50 (pIC50) was 4.50.

As to `Cc1onc(-c2ccccc2)c1C(=O)NC(=S)NNC(=O)c1ccc(O)cc1O`, the pIC50 is 3.96.

For the compound `Nc1cc(Cl)c2nonc2c1[N+](=O)[O-]`, the pIC50 is 4.24.

`Nc1ncn([C@@H]2O[C@H](CO)[C@@H](O)[C@H]2O)c(=O)n1`: the pIC50 was 4.30.

With `CCn1cc(C(=O)O)c(=O)c2cc(F)c(N3CCN(C(=S)NC(=O)c4ccc(F)cc4)CC3)cc21`, the pIC50 was 4.33.

`O=C(N/N=C/c1sc2ccccc2c1O)c1cccc2ccccc12`: the pIC50 is 4.37.

In the case of `O=[N+]([O-])c1cc(Cl)c(O)c2ncccc12`, the pIC50 was 5.21.

Regarding `O=[N+]([O-])c1ccc(O)c(/C=N/Nc2ccccn2)c1`, the pIC50 is 4.77.

For the compound `Oc1ccc(/C=N/Nc2ncc(Br)cn2)c(O)c1`, the pIC50 is 3.96.

Regarding `Nc1cccc2nc3ccccc3cc12`, the pIC50 was 4.24.

For `CC(C(=O)NC1C=CS(=O)(=O)C1)N1C(=O)/C(=C/c2ccc(Cl)cc2)SC1=S` (centres undefined), the pIC50 is 4.14.

As for `C#CCOCCOCCOCCNc1nc(N2CCN(C(=O)CCCCCCCCCCNC(=O)[C@H]([C@@H](C)CC)n3cc(CCCCN=C(N)N)nn3)CC2)nc(N2CCN(C(=O)CCCCCCCCCCNC(=O)[C@H]([C@@H](C)CC)n3cc(CCCCN=C(N)N)nn3)CC2)n1`, the negative-log IC50 (pIC50) is 4.10.

`CCCCCCCCCCOC(=O)Cn1c(COc2ccc(Cl)cc2)[n+](C)c2ccccc21`: the pIC50 is 4.71.

Turning to `O=S1(=O)Nc2c(ccc3cccnc23)-c2ccccc21`, the pIC50 was 5.11.

Consider `OCCN1CCN(Cc2cc(Cl)c3cccnc3c2O)CC1`, for which the pIC50 is 3.98.

As to `Cc1ccccc1Nc1cc(C)c2c(O)cccc2n1`, the negative-log IC50 (pIC50) is 4.21.

As to `CCCCNC(=O)c1cn(CC)c2cc(N3CCN(C)CC3)c(F)cc2c1=O`, the pIC50 was 4.63.

On to `CCOc1ccc(Nc2c3ccccc3nc3ccccc23)cc1`, for which the pIC50 is 4.11.

For the compound `O=C(Cn1nc(CNc2ccc(Cl)cc2)[n+]2c1CCCCC2)c1ccc(Br)cc1`, the pIC50 was 4.04.

Take `O=[N+]([O-])c1cc(/C=N/Nc2nc3ccccc3[nH]2)c(O)cc1O`: the negative logarithm of the IC50 (pIC50) is 4.61.

On to `O=[N+]([O-])c1cc(CN2CCCC2)c2cccnc2c1O`, for which the negative-log IC50 (pIC50) was 4.15.

Regarding `CN(C)CCCNc1cc(C(C)(C)C)nc2c(-c3ccccc3)cnn12`, the pIC50 is 4.17.

As for `CC(=O)NC(c1ccc(C)cc1)c1cc([N+](=O)[O-])c2cccnc2c1O` (centres undefined), the pIC50 is 4.43.

On to `NC1CCN(c2c(F)cc3c(=O)c(C(=O)O)cn(C4CC4)c3c2Cl)C1` (centres undefined), for which the pIC50 is over 6.64.

As to `Oc1c(CN2CCc3ccccc3C2)cc(Cl)c2cccnc12`, the pIC50 is 4.66.

For `O=c1[nH]c2ccccc2n2c(=S)[nH]nc12`, the negative logarithm of the IC50 (pIC50) was 4.40.

For `O=C(C[n+]1cc(-c2ccc(Cl)cc2)n2c1CCC2)Nc1nc(-c2ccccc2)cs1`, the pIC50 is 4.07.

Consider `CCc1ccc(-c2nn(-c3ccccc3)cc2CSC(=N)N)cc1`, for which the pIC50 was 4.43.

As to `CN1CCN(C(c2ccccn2)c2cc(Cl)c3cccnc3c2O)CC1` (centres undefined), the negative logarithm of the IC50 (pIC50) is 4.02.

Regarding `CO[C@@]1(NC(=O)C2SC(=C(C(N)=O)C(=O)O)S2)C(=O)N2C(C(=O)O)=C(CSc3nnnn3C)CS[C@@H]21` (some centres undefined), the negative logarithm of the IC50 (pIC50) is 4.80.

Consider `C/C(=N\Nc1nc2ccccc2[nH]1)c1ccccn1`, for which the negative logarithm of the IC50 (pIC50) was 4.46.

Turning to `CCn1cc(C(=O)O)c(=O)c2cc(F)c(N3CCN(C(=S)Nc4ccc(OC)cc4)CC3)cc21`, the pIC50 was 5.22.

Turning to `CC1CCc2cc(F)cc3c(=O)c(C(=O)O)cn1c23` (centres undefined), the pIC50 was 5.23.

Turning to `Oc1ccc(CN2CCc3ccccc3C2)c2cccnc12`, the pIC50 is 4.37.

For `O=S1(=O)N=C(N/N=C/c2ccccn2)c2ccccc21`, the pIC50 was 4.46.

Regarding `CN1CCN(c2cc3c(cc2F)c(=O)c(C(=O)O)cn3CCF)CC1`, the pIC50 was 6.43.

Consider `CCCOc1ccc(C(=O)C(CCC(CNCC)C(=O)c2ccc(OCCC)cc2)CNCC)cc1` (centres undefined), for which the negative logarithm of the IC50 (pIC50) is 4.02.

Consider `CO[C@H]1/C=C/O[C@@]2(C)Oc3c(C)c(O)c4c(O)c(c(C=NN5CCN(C)CC5)c(O)c4c3C2=O)NC(=O)/C(C)=C\C=C\[C@H](C)[C@H](O)[C@@H](C)[C@@H](O)[C@@H](C)[C@H](OC(C)=O)[C@@H]1C`, for which the negative-log IC50 (pIC50) was 5.13.

On to `O=C(CSc1ccccn1)N/N=C/c1cc([N+](=O)[O-])ccc1O`, for which the pIC50 was 4.24.

On to `Cc1cc(C)c2ccc(N)nc2c1O`, for which the negative logarithm of the IC50 (pIC50) was 4.16.

`OC(c1cc(C(F)(F)F)nc2c(Cl)cc(Cl)cc12)C1CCCCN1` (centres undefined): the pIC50 is 3.99.

For the compound `CCCCCCCCCCOC(=O)Cn1c(COc2ccccc2)[n+](C)c2ccccc21`, the negative logarithm of the IC50 (pIC50) was 4.75.

Consider `O=C(O)CSc1cc(NS(=O)(=O)c2cccc([N+](=O)[O-])c2)c2ccccc2c1O`, for which the negative-log IC50 (pIC50) is 3.88.

As for `CCCCCCCCCCCCCCCC[n+]1cccc(C(=O)N(CC)CC)c1`, the negative-log IC50 (pIC50) was 4.60.

Turning to `O=[N+]([O-])c1ccc(N/N=C/c2ccc[nH]2)cc1`, the pIC50 was 4.13.

Take `NC(=NCCCCCCN=C(N)/N=C(\N)Nc1ccc(Cl)cc1)/N=C(\N)Nc1ccc(Cl)cc1`: the negative-log IC50 (pIC50) is 5.08 and 4.99 and 4.83.

For `CCCCCCCNC(=O)C1(CC2CC(c3cccc(Br)c3)=NO2)CCNCC1` (centres undefined), the pIC50 was 4.34.

On to `Cc1ccc(/C=C/C(=O)c2ccccc(=O)c2O)cc1C`, for which the pIC50 was 4.37.

`O=C(NC(CO)Cc1ccc([N+](=O)[O-])cc1)C(Cl)Cl` (centres undefined): the pIC50 is 5.00.

As to `CCCCCCCSc1cc(OC)c(CCNC)cc1OC`, the pIC50 was 4.25.

Regarding `CCc1ccc(NC(=O)C[n+]2cc(-c3ccc(C)cc3)n3c2CCC3)cc1`, the pIC50 is 3.98.

As for `CCn1cc(C(=O)O)c(=O)c2cc(F)c(N3CCN(C(=O)Nc4ccccc4)CC3)cc21`, the pIC50 was 4.49.

As for `O=C(Nc1nc(-c2ccccn2)cs1)c1ccc(Cl)s1`, the pIC50 was 4.16.

In the case of `Clc1ccc(-c2c[n+](Cc3ccc(Cl)cc3Cl)c3n2CCCCC3)cc1`, the negative-log IC50 (pIC50) was 3.90.

Turning to `CC(Cc1ccccc1)NCc1ccccc1O` (centres undefined), the pIC50 is 4.39.

As to `CCN(CC)CCOc1ccc2c(c1)C(=NNC(=O)c1ccccn1)c1cc(OCCN(CC)CC)ccc1-2`, the pIC50 was 4.37.

For `CCC(C)(C)c1ccc(OCCCC[n+]2ccccc2)c(C(C)(C)CC)c1`, the pIC50 is 4.41.

For the compound `CN1CCN(CCCN2c3ccccc3Sc3ccc(Cl)cc32)CC1`, the negative-log IC50 (pIC50) was 4.15.

Take `Cc1conc1NC(c1cccs1)c1ccc2cccnc2c1O` (centres undefined): the negative logarithm of the IC50 (pIC50) was 4.22.

For the compound `Clc1ccc(Cl)c(OCCCCNCc2ccccc2)c1`, the pIC50 is 3.91.

Take `Cc1ccc(Cn2c(=N)n(CC(=O)c3ccc([N+](=O)[O-])cc3)c3ccccc32)cc1`: the pIC50 was 3.85.

On to `OC(c1cc(-c2ccc(C(F)(F)F)cc2)nc(C(F)(F)F)c1)C1CCCCN1` (centres undefined), for which the pIC50 was 4.42.

Regarding `O=C(NC(=S)NNC(=O)c1ccccc1O)c1ccco1`, the pIC50 is 4.15.

Turning to `O=C(N/N=C/c1cc(Cl)ccc1O)c1ccncc1`, the pIC50 is 4.42.

With `COc1c(N2CCNC(C)C2)c(F)cc2c(=O)c(C(=O)O)cn(C3CC3)c12` (centres undefined), the pIC50 was 6.24.

On to `CCOc1ccc(NC(=O)c2ccc(NC(=O)c3cn4c5c(c(N6CCN(C)CC6)c(F)cc5c3=O)OCC4C)cc2)cc1` (centres undefined), for which the negative logarithm of the IC50 (pIC50) is 5.53.

Take `O=[N+]([O-])c1cc(O)c2ncccc2c1`: the pIC50 was 4.55.

Consider `CNc1nc(NCc2ccccc2)c2ccccc2n1`, for which the pIC50 was 3.87.

As for `CC[n+]1c(/C=C/N(C)c2ccccc2)n(-c2ccccc2)c2ccc(-c3nc4ccccc4s3)cc21`, the negative logarithm of the IC50 (pIC50) was 4.58.

Turning to `Oc1ccc(CNc2ccccc2F)c2cccnc12`, the negative logarithm of the IC50 (pIC50) was 4.02.

In the case of `C/C(=N\Nc1ncnc2sc(C)c(C)c12)c1ccccn1`, the pIC50 was 4.13.

For the compound `CCn1cc(C(=O)O)c(=O)c2cc(F)c(N3CCNCC3)cc21`, the pIC50 was 6.29.

Take `Oc1cc(Cl)ccc1Oc1ccc(Cl)cc1Cl`: the negative logarithm of the IC50 (pIC50) is 6.09.

`Nc1nonc1C(=O)N/N=C/c1cc(Br)ccc1O`: the pIC50 is 4.77.

For the compound `COc1ccc(CNC[C@@H](CCCCN(C)Cc2ccc(OC)cc2)N2C[C@H](c3ccccc3)N(CCc3ccc(Cl)c(Cl)c3)C(=O)C2=O)cc1`, the negative logarithm of the IC50 (pIC50) is 4.12.

As to `CCn1nc(C(=O)O)c(=O)c2cc3c(cc21)OCO3`, the negative-log IC50 (pIC50) was 4.55.

Take `Oc1c(CN2CCN(c3ccc(F)cc3)CC2)cc(Cl)c2cccnc12`: the pIC50 is 4.31.

For `O=CN/N=C/c1c(O)ccc2ccccc12`, the pIC50 is 4.14.

With `COc1ccc(/C=N/Nc2cc(C)nc3ccccc23)cc1`, the pIC50 is 4.42.

With `CN1CCN(c2c(F)cc3c(=O)c(C(=O)O)cn4c3c2SCC4)CC1`, the pIC50 was 5.35 and 5.33.

On to `COc1c(N2CCN(C(=S)Nc3ccc(F)cc3)C(C)C2)c(F)cc2c(=O)c(C(=O)O)cn(C3CC3)c12` (centres undefined), for which the negative-log IC50 (pIC50) is 5.13.

Consider `COc1ccccc1CNCCc1ccc(F)cc1`, for which the pIC50 was 4.37.

With `Clc1ccc(C[n+]2cc(-c3ccc(Cl)cc3)n3c2CCC3)cc1`, the negative-log IC50 (pIC50) is 3.90.

Consider `Cc1ccc(C(=O)Sc2cccccc2=O)cc1`, for which the negative logarithm of the IC50 (pIC50) is 4.67.

In the case of `C[CH2][Hg][S]c1ccccc1C(=O)O`, the pIC50 is 3.87.

As to `O=[N+]([O-])c1ccc(Sc2nc3ccccc3o2)c([N+](=O)[O-])c1`, the negative-log IC50 (pIC50) is 3.93.

In the case of `Oc1ccc(CN2CCN(Cc3ccccc3)CC2)c2cccnc12`, the pIC50 is 4.21.

With `CCCc1nnc(NC(=O)c2cn(CC)c3cc(N4CCN(C)CC4)c(F)cc3c2=O)s1`, the pIC50 is 4.17.

Take `O=[N+]([O-])c1cc(F)c2cccnc2c1O`: the pIC50 was 4.92.

Take `CC(C)(C)/C(O)=C/c1nc2cc(Cl)ccc2oc1=O`: the negative logarithm of the IC50 (pIC50) is 4.00.
